How the values were obtained:
[1] = system: primary human chondrocyte pellet cultures; test: Chondrogenesis activity assay in primary human chondrocyte pellet cultures (proteoglycan (aggrecan) induction, Blyscan assay); assay type: cell-based; conditions: for EC50: 336 h, proteoglycan (aggrecan) induction, primary human chondrocyte pellets, 2 weeks culture; for Emax: Homo sapiens, Chondrocyte, maximum percent proteoglycan (aggrecan) induction relative to the internal reference compound at 10 μM
Method: B) Chondrogenesis Activity Assay in Primary Human Chondrocyte Pellet Cultures
In this assay human articular chondrocytes are harvested by enzymatic digestion from articular cartilage and passaged several times to dedifferentiate the chondrocytes and to propagate the cells. Cells are cultured as cell pellets in the presence of the compounds of the invention over 2 weeks, and the chondrogenic differentiation is quantified by the production of the chondrogenic marker aggrecan (proteoglycan).
In detail, primary chondrocytes were harvested by enzymatic digestion from cartilage of osteoarthritis patients undergoing knee joint replacement surgery, and cultured in vitro. Cells were passaged one or two times and aliquots were cryopreserved. To initiate chondrogenesis experiments, cell aliquots were thawn, cultured in Chondrocyte Growth Medium (CGM, Lonza, #CC-3216) and passaged twice to further propagate and dedifferentiate cells. Pellet cultures were initiated by seeding 2.5×10E5 cells per well into a 96-well deep well plate in 600 μl chondrocyte differentiation medium consisting of Dulbecco's Modified Eagle Medium (DMEM, Invitrogen, #41966), 1×ITS-solution (Insulin/Transferrin/sodium selenite; 100× solution: Invitrogen, #51500056), 5 μg/mL linoleic acid (Sigma, #L1012-1G), 1× nonessential amino acids (100× solution: Invitrogen, #11140); 10 nM Dexamethasone, 2 ng/ml TGF-β1 (transforming growth factor β1) and 10 μg/ml ascorbic acid. Cells were spun to pellets by centrifugation (10 min, 400×g). Test compounds dissolved in DMSO were added to yield increasing compound concentrations, typically from 40 nM to 10 μM, and a final DMSO concentration of 0.1%, and the cell pellets cultured at 37° C., and 5% CO2 for 2 weeks. On each 96-well plate, control wells containing no test compound but the same concentration of DMSO, i.e. untreated cells, were included and used as reference for the determination of the effect of the test compounds on the cells, and wells containing an internal reference compound at a concentration of 10 μM were included and used as positive control and for standardizing the results. Chondrocyte differentiation medium and the compounds were exchanged twice weekly until harvest of the pellets.
For harvest of the pellets, medium was removed and the pellet was homogenized by enzymatic digestion. 100 μl of protease solution containing 0.4 mg/ml papain, 50 mM sodium phosphate, 4 mM EDTA and 0.48 mg/ml L-cysteine was added to the pellet in each well of a 96-well plate, the plate was sealed with a plate sealer foil (SILVERseal, Greiner Bio-One) and incubated for 4 to 6 hours at 65° C. with agitation.
The concentration of proteoglycan (aggrecan) was determined by quantification of the sulfated glycosaminoglycan side chains of aggrecan using the Blyscan assay (Kit from Biocolor). Aliquots of the papain-digest were transferred to 400 μl of Blyscan dye solution and incubated at room temperature for 45 min with agitation (1200 rpm). The mixture was centrifuged at 3760×g for 45 min, the supernatant was discarded, and the stained pellet was redissolved in 400 μl of Blyscan dissociation reagent by rotation until the precipitate completely resolved. Optical density was measured at 656 nm using a Tecan Saphire2 instrument, and the amount of proteoglycan determined against a standard curve with chondroitin-4-sulfate.
Induction of proteoglycan (aggrecan) was calculated for each compound concentration relative to the control (untreated cells, i.e. no test compound added), and an EC50 value (effective concentration 50 (in μM (micromollliter)), i.e. the compound concentration at which the effect of the compound on proteoglycan (aggrecan) induction reaches 50% of the maximum induction) was calculated using a sigmoidal signal fit procedure. […]

ATDC5 cells = test: Chondrogenesis activity assay in ATDC5 cells (collagen type II induction, immunofluorescence); assay type: cell-based, mouse; conditions: Mus musculus; for EC50: collagen type II induction in ATDC5 cells, concentration reaching 50% of maximum induction; for Emax: maximum percent induction of collagen type II relative to internal reference compound at 10 μM, ATDC5 cells
Method in brief: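 Collagen type II was stained in fixed, permeabilized cells with an Alexa Fluor 488 secondary and measured by high-content fluorescence imaging. ATDC5 cells had 4 days at 37 °C in insulin-supplemented differentiation medium with compound, typically 40 nM–10 μM, 0.1% DMSO. DMSO wells and a 10 μM internal reference compound were used for normalization.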

Structure (SMILES)	EC50 [1] [µM]	Emax [1] [%]	EC50 (ATDC5 cells) [µM]	Emax (ATDC5 cells) [%]
Cc1nccc2c1[nH]c1c(-c3ccc(OCC4CCN(C)C4)cc3)cc(Cl)cc12 (stereo not shown) [Example 228, 6-Chloro-1-methyl-8-[4-(1-methyl-pyrrolidin-3-ylmethoxy)-phenyl]-9H-pyrido[3,4-b]indole]	0.14	100 to 200	0.15	50 to 80
Cc1nccc2c1[nH]c1c(-c3cccc(NC(=O)Nc4ccc(F)cc4F)c3)cc(Cl)cc12 [Example 230, 1-[3-(6-Chloro-1-methyl-9H-pyrido[3,4-b]indol-8-yl)-phenyl]-3-(2,4-difluoro-phenyl)-urea]	21	< 40	> 3.3	< 20
Cc1nccc2c1[nH]c1c(-c3ccc4c(c3)CC(C)(C)O4)cc(Cl)cc12 [Example 236, 6-Chloro-8-(2,2-dimethyl-2,3-dihydro-benzofuran-5-yl)-1-methyl-9H-pyrido[3,4-b]indole]	4.6	> 200	> 3.3	< 20
Cc1nccc2c1[nH]c1c(-c3ccc(CN)cc3)cc(Cl)cc12 [Example 241, 4-(6-Chloro-1-methyl-9H-pyrido[3,4-b]indol-8-yl)-benzylamine]	1.5	100 to 200	> 1.1	20 to 50
CCn1c2c(-c3cnn(Cc4ccccn4)c3)cc(Cl)cc2c2ccnc(C)c21 [Example 244, 6-Chloro-9-ethyl-1-methyl-8-(1-pyridin-2-ylmethyl-1H-pyrazol-4-yl)-9H-pyrido[3,4-b]indole]	4.9	> 200	1.1	> 80
Cc1nccc2c1[nH]c1c(-c3ccnc(F)c3Br)cc(Cl)cc12 [Example 245, 8-(3-Bromo-2-fluoro-pyridin-4-yl)-6-chloro-1-methyl-9H-pyrido[3,4-b]indole]	10	40 to 100	> 1.1	< 20
Cc1nccc2c1[nH]c1c(-c3cccc(N4CCOCC4)c3)cc(Cl)cc12 [Example 247, 6-Chloro-1-mehtyl-8-(3-morpholin-4-yl-phenyl)-9H-pyrido[3,4-b]indole]	3.8	> 200	> 3.3	< 20
Cc1nccc2c1[nH]c1c(-c3cccc(C=O)c3)cc(Cl)cc12 [Example 250, 3-(6-Chloro-1-methyl-9H-pyrido[3,4-b]indol-8-yl)-benzaldehyde]	4.9	100 to 200	> 3.3	50 to 80
Cc1nccc2c1[nH]c1c(-c3cc(C(F)(F)F)cc(C(F)(F)F)c3)cc(Cl)cc12 [Example 251, 8-(3,5-Bis-trifluoromethyl-phenyl)-6-chloro-1-methyl-9H-pyrido[3,4-b]indole]	9.1	40 to 100	> 10	< 20
CCn1c2c(-c3ccc(OCC4(C)COC4)cc3)cc(Cl)cc2c2ccnc(C)c21 [Example 256, 6-Chloro-9-ethyl-1-methyl-8-[4-(3-methyl-oxetan-3-ylmethoxy)-phenyl]-9H-pyrido[3,4-b]indole]	1.3	> 200	0.16	> 80
Cc1nccc2c1[nH]c1c(-c3cccc(C(O)c4ccccn4)c3)cc(Cl)cc12 (stereo not shown) [Example 258, [3-(6-Chloro-1-methyl-9H-pyrido[3,4-b]indol-8-yl)-phenyl]-pyridin-2-yl-methanol]	8.2	40 to 100	> 3.3	< 20
Cc1nccc2c1[nH]c1c(-c3ccc(C(=O)NCCN(C)C)cc3)cc(Cl)cc12 [Example 264, 4-(6-Chloro-1-methyl-9H-pyrido[3,4-b]indol-8-yl)-N-(2-dimethylamino-ethyl)-benzamide]	1.5	40 to 100	> 1.1	20 to 50
Cc1nccc2c1[nH]c1c(-c3cccc(C(=O)NCCN(C)C)c3)cc(Cl)cc12 [Example 265, 3-(6-Chloro-1-methyl-9H-pyrido[3,4-b]indol-8-yl)-N-(2-dimethylamino-ethyl)-benzamide]	3.8	< 40	> 1.1	< 20
Cc1nccc2c1[nH]c1c(-c3ccc(OCc4nccc5ccccc45)cc3)cc(Cl)cc12 [Example 270, 6-Chloro-8-[4-(isoquinolin-1-ylmethoxy)-phenyl]-1-methyl-9H-pyrido[3,4-b]indole]	4.3	40 to 100	> 1.1	20 to 50
Cc1nccc2c1[nH]c1c(-c3cccc(OCc4nccn4C)c3)cc(Cl)cc12 [Example 271, 6-Chloro-1-methyl-8-[3-(1-methyl-1H-imidazol-2-ylmethoxy)-phenyl]-9H-pyrido[3,4-b]indole]	4.9	> 200	> 3.3	20 to 50
Clc1cc(-c2cnn(Cc3cccnc3)c2)c2c(c1)c1ccncc1n2CC1CC1 [Example 288, 6-Chloro-9-cyclopropylmethyl-8-(1-pyridin-3-ylmethyl-1H-pyrazol-4-yl)-9H-pyrido[3,4-b]indole]	1.2	> 200	0.52	> 80

Reference: patent publication US12275733B2, “Substituted pyrido[3,4-b]indoles for the treatment of cartilage disorders” (Sanofi, priority 2016, dated 2025)
